Experimental data published in patent US20240423927A1, “COMPOSITIONS AND METHODS FOR USE IN IMMUNOTHERAPY” (INSTITUT CURIE, priority 2021, published 2024).

What was measured:
[1] = system: tumor-specific CD8 and CD4 T cell responses (PBMCs); assay: Ex vivo stimulation assay: IFN-γ ELISPOT of PBMCs stimulated with OVA and p15 peptides; format: in vivo, C57BL/6J mice; conditions: Example 1, four days after third s.c. injection, cGAMP-VLP 50 ng cGAMP s.c., Imatinib 10 mg/kg i.p.
Source text: […] Mice were bled in the retro-orbital sinus and PBMCs were isolated from whole blood by lysing the red blood cells. […] Spots were developed using a mouse IFN-γ ELISPOT antibody (Diaclone) according to the manufacturer's instructions, and the number of spots enumerated using an ImmunoSpot analyzer.

MCA-OVA tumor [2] = assay: Tumor growth monitoring in MCA-OVA tumor model; format: in vivo, C57BL/6J mice; conditions: Example 1; cGAMP-VLP 50 ng cGAMP s.c. three times, Imatinib 10 mg/kg i.p. days 6-10
MCA-OVA tumor [3] = assay: Survival of treated MCA-OVA tumor-bearing mice; format: in vivo, C57BL/6J mice; conditions: Example 1; log-rank test; cGAMP-VLP 50 ng cGAMP s.c., Imatinib 10 mg/kg i.p.
STING [4] = biological target: STING (Homo sapiens, UniProt Q86WV6); conditions: compared with cGAMP, reporter assays; cited from earlier work
Sequence of STING (Homo sapiens, UniProt Q86WV6) (Q86WV6 whole entry): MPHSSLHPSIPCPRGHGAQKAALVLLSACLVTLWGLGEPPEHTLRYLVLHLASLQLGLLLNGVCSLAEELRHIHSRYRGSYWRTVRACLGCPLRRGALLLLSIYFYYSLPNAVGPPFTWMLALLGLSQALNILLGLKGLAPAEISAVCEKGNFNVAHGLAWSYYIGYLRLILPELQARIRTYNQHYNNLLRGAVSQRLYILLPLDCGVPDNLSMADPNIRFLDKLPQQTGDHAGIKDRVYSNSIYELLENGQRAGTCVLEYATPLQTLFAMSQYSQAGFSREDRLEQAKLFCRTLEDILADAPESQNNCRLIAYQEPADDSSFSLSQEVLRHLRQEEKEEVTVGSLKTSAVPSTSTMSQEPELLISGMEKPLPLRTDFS

STING [5] = conditions: comparative statement (hSTING vs mSTING; or vs cGAMP); cited from earlier work

Molecule | Tumor-specific T cell responses in peripheral blood (IFN-γ ELISPOT) [1] | Tumor growth (MCA-OVA tumor [2]) | Survival (death event: tumor size >2 cm^3) (MCA-OVA tumor [3]) | Potency for inducing type I IFN (STING [4]) | Affinity/binding to STING (STING [5])
Cc1ccc(NC(=O)c2ccc(CN3CCN(C)CC3)cc2)cc1Nc1nccc(-c2cccnc2)n1 [Imatinib] | did not induce tumor-specific T cell responses compared to the PBS group | no effect on the tumor growth compared to control group | did not show survival benefit compared to PBS treatment | – | –
COc1c(O)cc2oc3cc(O)c(CC=C(C)C)c(O)c3c(=O)c2c1CC=C(C)C [α-mangostin] | – | – | – | weaker potency for inducing type I IFN compared with cGAMP | higher affinity to human (h)STING than to mSTING
Diaminobenzimidazole | – | – | – | – | enhanced binding to STING and cellular function as compared to cGAMP
